The structures appear in SMILES notation. Read-outs that look alike come from different tables or passages of the source.

The subject of data set [1] is A375P (human melanoma) cell line. Briefly: MTT cytotoxicity assay, A375P. The data set is classed as cell-based. Particulars: 24 h treatment, mean ± SD, read-out: Cytotoxic effect IC50, cell line A375P. Here is the method:
(§1) To evaluate the anticancer potential of compounds 1–11, an MTT assay was used to determine the cell viability of human melanoma (A375P) and murine melanoma (B16F10 and B16F1) cell lines following a 24 h treatment with compounds 1–11.
(§2) The cytotoxic activities of all the compounds (1–11) were evaluated using the MTT assay. Briefly, the A375P (human melanoma), B16F10 and B16F1 (mouse melanoma) cell lines obtained from the Korean Cell Line Bank (Seoul, Korea) were cultured in Dulbecco’s Modified Eagle’s Medium (DMEM) (Gibco, CA, USA) containing penicillin (100 units/mL)-streptomycin (100 µg/mL) (Gibco, CA, USA) and 5% heat-inactivated fetal bovine serum (FBS) (Welgene, Korea) in a humidified chamber with 5% CO2 at 37 °C. The cells were seeded in 96-well plates at a density of 6 × 10^3 cells/well and incubated for 24 h. The medium was then aspirated and replaced with 100 μL of fresh medium containing various concentrations of the test compound. After incubation for a further 24 h, the compound containing the medium was replaced with 100 μL of a MTT solution (0.5 mg/mL) and incubated for 4 h. Then the insoluble formazan crystals were dissolved in 100 µL of DMSO and measured at 490 nm on a microplate reader.
On the technique in general: Formazan colour is commonly taken as a measure of viable cells.

Data set [2] deals with B16F10 (mouse melanoma) cell line. Briefly: MTT cytotoxicity assay, B16F10. Particulars: 24 h treatment, mean ± SD, read-out: Cytotoxic effect IC50, cell line B16F10. It is filed as cell-based. The method, then: as §1, §2
Data set [3] relates to B16F1 (mouse melanoma) cell line. The data set can be described thus: MTT cytotoxicity assay, B16F1. The conditions noted are these: 24 h treatment, mean ± SD, read-out: Cytotoxic effect IC50, cell line B16F1. The data set is classed as cell-based. The method, then: as §1, §2
The next data set deals with mushroom tyrosinase. The data set can be described thus: Mushroom tyrosinase inhibition (L-tyrosine substrate, dopachrome absorbance at 490 nm). It is filed as biochemical. The conditions noted are these: L-tyrosine as substrate, 30 min at 37 °C, mean ± SD, read-out: Anti-Tyrosinase IC50. The method, then: All the compounds were investigated for their tyrosinase inhibitory effects using L-tyrosine as the substrate. […] All the compounds were first dissolved in dimethyl sulfoxide (DMSO) and then diluted into different concentrations (1, 2, 4, 10, 40, 80, and 160 µM). An amount of 100 µL of each sample solution and 50 µL of the 2 mM L-tyrosine solution in 0.1 M phosphate buffer (pH 6.5) were added to 96-well microplates. After incubation at room temperature for 5 min, 50 µL of mushroom tyrosinase (300 U/mL in phosphate buffer) was added to each well. After further incubation for 30 min under 37 °C, the absorbance of dopachrome produced in the mixture was determined at 490 nm with a microplate reader (SpectraMax 190; Molecular Devices, Sunnyvale, CA, USA). The percent of inhibition of tyrosinase activity was calculated using the formula: % inhibition = (A − B)/A × 100, in which A is the absorbance at 490 nm without the test sample, and B is the absorbance at 490 nm with the test sample. IC50 values were calculated from the mean values of data from four determinations.

For the molecule `O=c1[nH]cc(F)c(=O)[nH]1` [Compound 5-FU, 5-FU, reference compound], the IC50 is 13.1 ± 1.55 µM in data set [1], 4.61 ± 0.16 µM in data set [2] and 12.8 ± 0.16 µM in data set [3].
For `C=CC(C)(C)c1cc2c(cc1O)O[C@H](c1cc(O)c(O)c(CC=C(C)C)c1CC=C(C)C)CC2` [Compound 2, Kazinol E], the 50% inhibitory concentration (IC50) was above 80 µM on mushroom tyrosinase; 11.5 ± 0.24 µM in data set [1] (Homo sapiens, A375P, 24 h); 12.1 ± 0.87 µM in data set [2] (Mus musculus, B16-F10, 24 h); 13.3 ± 0.22 µM in data set [3] (Mus musculus, B16-F1, 24 h).
On to `C=CC(C)(C)c1cc(CCCc2cc(O)c(O[C@@H]3O[C@H](CO)[C@@H](O)[C@H](O)[C@H]3O)c(CC=C(C)C)c2CC=C(C)C)c(O)cc1O` [Compound 8, Kazinol C-4″-O-β-D-glucopyranoside], for which the IC50 at mushroom tyrosinase was above 80 µM; in data set [1] (Homo sapiens, A375P, 24 h), above 80 µM; in data set [2] (Mus musculus, B16-F10, 24 h), above 80 µM; in data set [3] (Mus musculus, B16-F1, 24 h), above 80 µM.
Take `C=CC(C)(C)c1cc(CCCc2cc(O[C@@H]3O[C@H](CO)[C@@H](O)[C@H](O)[C@H]3O)c(O)c(CC=C(C)C)c2CC=C(C)C)c(O)cc1O` [Compound 6, Kazinol C-3″-O-β-D-glucopyranoside]: the IC50 is above 80 µM on mushroom tyrosinase; above 80 µM in data set [1] (Homo sapiens, A375P, 24 h); above 80 µM in data set [2] (Mus musculus, B16-F10, 24 h); above 80 µM in data set [3] (Mus musculus, B16-F1, 24 h).
As to `CC(C)=CCc1c(CCCc2ccc(O)cc2O)cc(O)c(O)c1CC=C(C)C` [Compound 3, Kazinol F], the IC50 at mushroom tyrosinase was 2.12 ± 0.21 µM; in data set [1] (Homo sapiens, A375P, 24 h), 18.16 ± 0.09 µM; in data set [2] (Mus musculus, B16-F10, 24 h), 19.9 ± 0.73 µM; in data set [3] (Mus musculus, B16-F1, 24 h) it was 13.8 ± 0.88 µM.
As to `CC(C)=CCc1c([C@H]2Oc3cc(O)cc(O)c3C(=O)[C@@H]2O)cc(O)c(O)c1CC=C(C)C` [Compound 4, (2R,3R)-3,5,7,3′,4′-pentahydroxy-5′,6′-diprenylflavanonol], the IC50 at mushroom tyrosinase was found to be 24.1 ± 0.3 µM; in data set [1] (Homo sapiens, A375P, 24 h), 13.8 ± 1 µM; in data set [2] (Mus musculus, B16-F10, 24 h) it was 27.8 ± 0.63 µM; in data set [3] (Mus musculus, B16-F1, 24 h) it was 24.4 ± 1.82 µM.
Turning to `C=CC(C)(C)c1cc(CCCc2cc(O[C@@H]3O[C@H](CO)[C@@H](O)[C@H](O)[C@H]3O)c(O[C@@H]3O[C@H](CO)[C@@H](O)[C@H](O)[C@H]3O)c(CC=C(C)C)c2CC=C(C)C)c(O)cc1O` [Compound 9, kazinol C-3″,4″-di-O-β-D-glucopyranoside], the IC50 on mushroom tyrosinase is above 80 µM; in data set [1] (Homo sapiens, A375P, 24 h), above 80 µM; in data set [2] (Mus musculus, B16-F10, 24 h), above 80 µM; in data set [3] (Mus musculus, B16-F1, 24 h), above 80 µM.
Consider `C=CC(C)(C)c1cc(CCCc2cc(O[C@@H]3O[C@H](CO)[C@@H](O)[C@H](O)[C@H]3O)c(O)c(CC=C(C)C)c2CC=C(C)C)c(O[C@@H]2O[C@H](CO)[C@@H](O)[C@H](O)[C@H]2O)cc1O` [Compound 7, kazinol C-2′,3″-di-O-β-D-glucopyranoside], for which the IC50 is above 80 µM at mushroom tyrosinase; 23.6 ± 0.52 µM in data set [1]; 17.8 to 24.2 µM in data set [1] (Homo sapiens, A375P, 24 h); 24.2 ± 1.26 µM in data set [2]; 17.8 to 24.2 µM in data set [2] (Mus musculus, B16-F10, 24 h); 17.8 ± 1.65 µM in data set [3]. Also, the IC50 in data set [3] (Mus musculus, B16-F1, 24 h) is 17.8 to 24.2 µM.
For `C=CC(C)(C)c1cc(CCCc2cc(O)c(O)c(CC=C(C)C)c2CC=C(C)C)c(O)cc1O` [Compound 1, Kazinol C], the IC50 is above 80 µM at mushroom tyrosinase; 12.1 ± 0.24 µM in data set [1] (Homo sapiens, A375P, 24 h); 26 ± 0.33 µM in data set [2] (Mus musculus, B16-F10, 24 h); 17.6 ± 0.33 µM in data set [3] (Mus musculus, B16-F1, 24 h).
On the same counts, the results for `CC(C)=CCc1c(CCCc2ccc(O)cc2O)cc(O)c(O[C@@H]2O[C@H](CO)[C@@H](O)[C@H](O)[C@H]2O)c1CC=C(C)C` [Compound 11, Kazinol F-4″-O-β-D-glucopyranoside] are 0.71 ± 0.01 µM, above 80 µM, above 80 µM and above 80 µM.
On to `C=CC(C)(C)c1cc(CCCc2cc(O)c3c(c2CC=C(C)C)C[C@H](C(C)(C)OC)O3)c(O)cc1O` [Compound 5, 5′-(2-methylbut-3-en-2-yl)-6″-(3-methylbut-2-enyl)-4″,5″-[(R)-2-(1-methoxy-1-methylethyl)]-dihydrofuranyl-2′,4′,3″-trihydroxydiphenylpropane], for which the IC50 at mushroom tyrosinase is above 80 µM; in data set [1] (Homo sapiens, A375P, 24 h) it was 45.9 ± 0.65 µM; in data set [2] (Mus musculus, B16-F10, 24 h), 43.2 ± 0.71 µM; in data set [3] (Mus musculus, B16-F1, 24 h), 17.3 ± 0.22 µM.

In general, IC50 refers to the concentration at which inhibition is half-maximal.
